From patent US11696916B2, “Carboxamide-pyrimidine derivatives as SHP2 antagonists” (Merck Patent GmbH, priority 2019, dated 2023) come the findings set out here.

Data set [1] concerns the target Full length SHP2 protein (Recombinant Human SHP-2) (Homo sapiens (Human), UniProt Q06124). As to the kind of experiment: SHP2 biochemical assay (DiFMUP, activating peptide IRS1_2pY). The following applies: DiFMUP substrate, 60 min RT. As to the method: The inhibition of SHP2 by compounds of the invention was monitored using the surrogate substrate DiFMUP after protein activation by a peptide bearing two appropriately spaced phosphotyrosine. […] The generation of the DiFMU product by activated SHP2 was monitored through Fluorescence measurement with a PerkinElmer Envision reader. The inhibitor dose response curves were analyzed with Genedata Screener.

For data set [2], the system named is pERK level in KYSE520 cells. In words: p-Erk cellular assay in KYSE520 (Mesoscale). The settings on record: Homo sapiens, KYSE-520, 2 h, 2 h compound incubation, read-out: pERK1/2 in KYSE520 IC50. Type of data set: cell-based. As to the method: The effect of SHP2 inhibitors on pERK level was assessed using phospho-specific antibody using Mesoscale quantification platform. For measuring change in pERK levels using mesoscale, 30,000 cells of MDA MB468 and KYSE520 cells were plated in 96-well tissue culture treated plate in 175 ul volume of media. After an overnight incubation at 37° C., various SHP2 inhibitors were added in different concentration to each well maintaining duplicate wells across plates and incubated with compounds for 2 h at 37° C. followed by a wash with ice cold PBS buffer. The cells were then lysed in lysis buffer and processed and analyzed for p-ERK/ERK as per manufacturer's instructions (Mesoscale discovery, cat No. K15107D-3).

Data set [3] can be described thus: Pharmacokinetics in mouse. Type of data set: in vivo. The following applies: for Cmax Normalized to 1 mgk / AUC (normalized 1 mpk): female CD1 mice; for Cmax Normalized to 1 mgk: normalized to 1 mg/kg; for AUC (normalized 1 mpk): normalized to 1 mpk; for Exposure compared to SHP-099: mouse PK. The procedure: Female CD1 mice (N=3) received a single oral (gavage) or a single intravenous (bolus) injection of compound. […] Consecutive blood samples were taken sub-lingually under isofluorane inhalation from animals after 0.083 (IV), 0.25, 0.5, 1, 2, 4, 6 and 24 h and were further processed to obtain plasma. Samples were protein precipitated and analyzed by LC/MS/MS.

Chain of Full length SHP2 protein (Recombinant Human SHP-2) (Q06124 2-593): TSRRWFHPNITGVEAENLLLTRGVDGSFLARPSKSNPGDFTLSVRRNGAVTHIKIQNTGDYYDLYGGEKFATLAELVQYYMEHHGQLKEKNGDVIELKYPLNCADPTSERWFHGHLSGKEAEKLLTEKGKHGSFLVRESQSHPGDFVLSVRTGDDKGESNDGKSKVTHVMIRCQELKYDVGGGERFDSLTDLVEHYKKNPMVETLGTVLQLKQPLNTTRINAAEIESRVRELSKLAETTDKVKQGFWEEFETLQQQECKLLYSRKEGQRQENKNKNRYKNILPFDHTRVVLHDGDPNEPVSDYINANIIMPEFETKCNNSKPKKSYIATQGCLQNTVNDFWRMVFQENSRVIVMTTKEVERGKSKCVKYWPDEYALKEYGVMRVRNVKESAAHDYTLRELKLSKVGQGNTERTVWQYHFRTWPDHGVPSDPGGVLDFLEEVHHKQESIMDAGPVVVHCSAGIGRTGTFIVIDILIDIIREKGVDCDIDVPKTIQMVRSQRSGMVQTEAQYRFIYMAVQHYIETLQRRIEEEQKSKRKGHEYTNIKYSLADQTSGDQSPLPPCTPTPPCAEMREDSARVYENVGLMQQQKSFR

For `Cc1nc(N2CCC3(CC2)CC(F)(F)C[C@H]3N)nc(C(N)=O)c1-c1cccc(Cl)c1Cl` (atropisomer, axis not shown; (M)) [Compound 96, (5M)-2-[(1R)-1-amino-3,3-difluoro-8-azaspiro[4.5]decan-8-yl]-5-(2,3-dichlorophenyl)-6-methylpyrimidine-4-carboxamide], the IC50 in data set [1] was 62 nM. Regarding `NC(=O)c1nc(N2CCC3(CC2)Cc2ccccc2[C@H]3N)nc(N)c1-c1cccc(Cl)c1Cl` (single isomer, unassigned) [Compound 117], the IC50 in data set [2] is 1 nM. Take `Cc1nc(N2CCC3(CC2)CC(F)(F)C[C@H]3N)nc(C(N)=O)c1-c1cccc(Cl)c1Cl` (atropisomer, axis not shown; (P)) [Compound 97, (5P)-2-[(1R)-1-amino-3,3-difluoro-8-azaspiro[4.5]decan-8-yl]-5-(2,3-dichlorophenyl)-6-methylpyrimidine-4-carboxamide]: in data set [1], the IC50 was found to be 4400 nM. With `C[C@@H]1OCC2(CCN(c3nc(N)c(-c4cccc(Cl)c4Cl)c(C(N)=O)n3)CC2)[C@@H]1N` (atropisomer, axis not shown; (P)) [Compound 66, (5P)-6-amino-2-[(3S,4S)-4-amino-3-methyl-2-oxa-8-azaspiro[4.5]decan-8-yl]-5-(2,3-dichlorophenyl)pyrimidine-4-carboxamide], the IC50 in data set [1] worked out at 52 nM. Regarding `C[C@@H]1OCC2(CCN(c3nc(N)c(-c4cccc(Cl)c4Cl)c(C(N)=O)n3)CC2)[C@@H]1N` (atropisomer, axis not shown; (M)) [Compound 67, (5M)-6-amino-2-[(3S,4S)-4-amino-3-methyl-2-oxa-8-azaspiro[4.5]decan-8-yl]-5-(2,3-dichlorophenyl)pyrimidine-4-carboxamide], the IC50 in data set [1] was determined as 16000 nM.

Turning to `NC(=O)c1nc(N2CCC3(CC2)Cc2ccccc2[C@H]3N)nc(N)c1-c1cccc(Cl)c1Cl` (atropisomer, axis not shown; (M)) [Compound 118, (5M)-6-amino-2-[(1S)-1-amino-1,3-dihydrospiro[indene-2,4′-piperidin]-1′-yl]-5-(2,3-dichlorophenyl)pyrimidine-4-carboxamide], in data set [2], the IC50 was found to be 114 nM. As to `Cc1nc(N2CCC3(CC2)CO[C@@H](C)[C@H]3N)nc(C(N)=O)c1-c1cccc(Cl)c1Cl` (single isomer, unassigned) [Compound 95], in data set [3], the “Cmax Normalized to 1 mgk” value is 150 ng/mL, the “AUC (normalized 1 mpk)” value stood at 1214 ng·h/mL and the “Exposure compared to SHP-099” value was “higher exposure”.

On to `NC(=O)c1nc(N2CCC3(CC2)Oc2ncccc2C3N)nc(N)c1-c1cccc(Cl)c1Cl` (single isomer, unassigned) [Compound 128], for which the IC50 in data set [2] was 161 nM.

For `NC(=O)c1nc(N2CCC3(CC2)Oc2ncccc2[C@@H]3N)nc(N)c1-c1cccc(Cl)c1Cl` (atropisomer, axis not shown; (M)) [Compound 130, (4M)-6-amino-2-[(3R)-3-amino-3H-spiro[furo[2,3-b]pyridine-2,4-piperidin]-1-yl]-5-(2,3-dichlorophenyl)pyrimidine-4-carboxamide], in data set [2], the IC50 amounted to 2240 nM. Consider `CC1(N)CCN(c2nc(N)c(-c3cccc(Cl)c3Cl)c(C(N)=O)n2)CC1` [Compound 27, (4P)-6-amino-2-(4-amino-4-methylpiperidin-1-yl)-5-(2,3-dichlorophenyl)pyrimidine-4-carboxamide], for which, in data set [3], the “Cmax Normalized to 1 mgk” value came out at 48 ng/mL, the “AUC (normalized 1 mpk)” value is 230 ng·h/mL and the “Exposure compared to SHP-099” value is listed as “higher exposure”. On to `Cc1nc(N2CCC3(CC2)Oc2ncccc2[C@H]3N)nc(C(N)=O)c1-c1cccc(Cl)c1Cl` [Compound 124, (4M)-2-[(3R)-3-amino-3H-spiro[furo[2,3-b]pyridine-2,4′-piperidin]-1′-yl]-5-(2,3-dichlorophenyl)-6-methylpyrimidine-4-carboxamide], for which the IC50 in data set [2] turned out to be 268 nM. Consider `Cc1nc(N2CCC3(CC2)Cc2ccccc2[C@H]3N)nc(C(N)=O)c1-c1cccc(Cl)c1Cl` (atropisomer, axis not shown; (M)) [Compound 119, (M)-2-[(1S)-1-amino-1,3-dihydrospiro[indene-2,4′-piperidin]-1′-yl]-5-(2,3-dichlorophenyl)-6-methylpyrimidine-4-carboxamide], for which the IC50 in data set [2] was 21 nM. `CC1(N)CCN(c2cnc(-c3cccc(Cl)c3Cl)c(N)n2)CC1` [SHP-099, SHP099, reference compound]: in data set [3], the “Cmax Normalized to 1 mgk” value turned out to be 48 ng/mL and the “AUC (normalized 1 mpk)” value was 129 ng·h/mL.
